According to article PMC10987949, “Inhibition of HIV-1 release by ADAM metalloproteinase inhibitors” (Frontiers in Microbiology, 2024):

What was measured:
PBMC = PBMC viability (AO/PI staining); type: cell-based, human; conditions: for PBMC viability at 24hr post treatment: 10-500 μM of MMP inhibitors for 24hours
Experimental: PBMC from de-identified healthy donors were obtained with informed consent from the Department of Transfusion Medicine, National Institutes of Health under Biological reagent Registry RD-14-IX-12 approved by NIH biological safety board. CD8-depleted PBMCs, either stimulated or non-stimulated with 10 μg/mL phytohaemagglutinin (PHA) or anti-CD3 antibody (with or without conjugated beads), were plated at 2×10^6 cells/ml in 48 well plates in RPMI 1640 + 10%FBS (R10) to a final volume of 1 mL in each well. IL-2 was added at a final concentration of 20 U/mL. CD3 antibody okt3 was used at ~0.2 μg/mL final concentration. Compounds were prepared in appropriate solvents according to the manufacturer’s instructions, diluted to working concentrations using RPMI 1640 + 10%FBS (R10), and added to the cell cultures for 6–24 h for CD62L shedding, and 48 h for TNF-α release. Supernatants were collected and assessed using either the CD62L or TNF-α Duo Set ELISA kit according to manufacturer’s instructions (R&D Systems, Inc.). The viability of cells treated with compounds was assessed by acridine orange / propidiom iodide (AO/PI Logosbio catalog F23001) staining using Luna-FL cell counter following the manufacture’s instruction.^2

CD62L shedding [1] = assay: Soluble CD62L ELISA, unstimulated PBMC; type: cell-based, human; conditions: 10 μM compound, non-stimulated cells, ELISA
Experimental: PBMC from de-identified healthy donors were obtained with informed consent from the Department of Transfusion Medicine, National Institutes of Health under Biological reagent Registry RD-14-IX-12 approved by NIH biological safety board. CD8-depleted PBMCs, either stimulated or non-stimulated with 10 μg/mL phytohaemagglutinin (PHA) or anti-CD3 antibody (with or without conjugated beads), were plated at 2×10^6 cells/ml in 48 well plates in RPMI 1640 + 10%FBS (R10) to a final volume of 1 mL in each well. IL-2 was added at a final concentration of 20 U/mL. CD3 antibody okt3 was used at ~0.2 μg/mL final concentration. […] Supernatants were collected and assessed using either the CD62L or TNF-α Duo Set ELISA kit according to manufacturer's instructions (R&D Systems, Inc.). The viability of cells treated with compounds was assessed by acridine orange / propidiom iodide (AO/PI Logosbio catalog F23001) staining using Luna-FL cell counter following the manufacture's instruction.^2 […] Supplemental Figure 1. CD62L shedding from unstimulated PBMC. A) Soluble CD62L in the supernatant of unstimulated PBMC was measured By ELISA (R&D systems, Inc) after 24 hour treatment in the presence of 10 μM of […]), aminopeptidase (AP) protease inhibitors, respectively, or their untreated controls. Statistics were calculated using unpaired parametric student t-test between individual treatment and DMSO control. […] B) Viability of PBMC treated with 10-500 μM of MMP inhibitors for 24hours. […] Untreated DMSO AEBSF 3,4-Dichloroisocouman Granzyme B Inhibitor II Granzyme B Inhibitor IV Aprotinin […] 3 4 CD62L shedding from unstimulated PBMC Soluble CD62L (ng/ml) Inhibitor Class […] GI254023X 10 GI254023X 100 […] GI254023X 1000 GW280264X 10 GW280264X 100 […] GW280264X 1000 Marimastat 10 Marimastat 100 Marimastat 250 […]

CD62L shedding [2] = assay: Soluble CD62L ELISA, anti-CD3/PHA stimulated PBMC or CD4 T cells; type: cell-based, human
Experimental: PBMC from de-identified healthy donors were obtained with informed consent from the Department of Transfusion Medicine, National Institutes of Health under Biological reagent Registry RD-14-IX-12 approved by NIH biological safety board. […] IL-2 was added at a final concentration of 20 U/mL. CD3 antibody okt3 was used at ~0.2 μg/mL final concentration. […] Supernatants were collected and assessed using either the CD62L or TNF-α Duo Set ELISA kit according to manufacturer’s instructions (R&D Systems, Inc.). The viability of cells treated with compounds was assessed by acridine orange / propidiom iodide (AO/PI Logosbio catalog F23001) staining using Luna-FL cell counter following the manufacture’s instruction.^2

recombinant ADAM10 [3] = molecular target: T1, recombinant ADAM10 (Homo sapiens, UniProt O14672); assay: Cleavage of fluorogenic CD62L peptide by recombinant ADAM10; type: biochemical; conditions: 2 μM compound
T1 construct: purchased R&D systems, Inc
T1 sequence (O14672 214-748): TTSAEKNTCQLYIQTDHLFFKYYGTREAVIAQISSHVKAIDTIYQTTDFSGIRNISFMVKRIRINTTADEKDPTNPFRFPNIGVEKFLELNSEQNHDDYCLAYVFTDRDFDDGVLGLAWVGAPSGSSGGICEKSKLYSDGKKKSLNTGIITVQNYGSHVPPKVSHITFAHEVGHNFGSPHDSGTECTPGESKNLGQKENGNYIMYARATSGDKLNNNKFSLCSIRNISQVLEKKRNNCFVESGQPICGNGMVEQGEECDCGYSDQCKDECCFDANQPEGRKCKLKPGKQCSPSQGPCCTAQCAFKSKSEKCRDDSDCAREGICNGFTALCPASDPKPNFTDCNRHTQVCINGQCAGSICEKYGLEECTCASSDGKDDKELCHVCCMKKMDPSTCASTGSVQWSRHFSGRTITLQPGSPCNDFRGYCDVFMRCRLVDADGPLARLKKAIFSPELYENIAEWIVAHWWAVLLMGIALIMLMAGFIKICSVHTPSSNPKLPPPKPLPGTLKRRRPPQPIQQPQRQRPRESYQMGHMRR
Excerpt: A fluorescence based enzymatic assay was used to measure the cleavage of fluorogenic TNF-α and L-selectin (CD62L) peptides by either recombinant ADAMs or PBMC from healthy donors. The fluorogenic substrate, synthesized by Biomatik^3, was a Dabcyl (4-(4-dimethylaminophenylazo)benzoyl)- and Edans (5-[(2-aminoethyl)amino]naphthalene-1-sulfonic acid)- conjugated 12 amino acid peptide: Dabcyl-[…]-Edans that corresponds to the extracellular membrane proximal region of CD62L. The fluorescence of the Edans group is quenched by the Dabcyl group in the intact substrate and the cleavage of the CD62L substrate peptide results in a fluorescence emission at 490 nm. The cleavage of fluorogenic TNF-α peptide (ES003, R &D systems, Inc) was detected at emission of 405 nm. The cleavage was measured in a kinetic assay every 3 min for 4 h in black 96-well plates using a Synergy_h1 fluorescent plate reader (BioTek) with 340 nm excitation and 490 nm emission wavelengths. For cleavage using recombinant ADAMs, each enzymatic reaction contained 50–200 ng of recombinant ADAM17 or 10 (R&D systems, Inc) mixed with 5–10 μM fluorogenic TNFα peptide ES003 (R&D systems, Inc) or CD62L peptide with or without indicated inhibitors in 100 μL assay buffer of 25 mM Tris at pH 9.0, 2.5 μM ZnCl2, and 0.005% Brij-35 (w/v). For cell-based cleavage of the fluorescent CD62L-peptide substrate, 300,000 PBMC at 2×10^6/ml density were mixed with 10 μM fluorescent CD62L-peptide and various inhibitors in a black 96-well plate in 150 μL culture media (RPMI 1640, 10% FBS, 1% penicillin streptomycin). PBMC were stimulated with anti-CD3 antibody for 2–4 days as described above.
Supplemental Figure 3. Inhibition of ADAM10 enzymatic activity by 14mb. A) chemical structure of 3-Cl-phenylpyrrolidine tartrate diamide analogs 14m and 15. B)Inhibition of recombinant ADAM10 cleavage of a fluorogenic CD62L peptide substrate in the presence of titrating concentrations of 14mb. The concentration-dependent enzymatic activities are fitted with non-linear regression of normalized inhibition response model. C). Inhibition of ADAM10 enzymatic cleavage of fluorogenic CD62L peptide by various […]

[4] = molecular target: T2, recombinant HIV-1 protease (Human immunodeficiency virus type 1 group M subtype B, UniProt P04585); assay: HIV-1 protease fluorogenic substrate cleavage; type: biochemical; conditions: 100nM saquinavir or nelfinavir; MMP inhibitors up to 10uM
T2 construct: recombinant HIV-1 protease; purchased Sigma-Aldrich SRP2151
Experimental: HIV-1 protease enzymatic activity was assayed in black 96-well plates at room temperature using a Synergy_h1 fluorescent plate reader with 340 nm excitation and 490 nm emission wavelengths (BioTek). Each enzymatic reaction consisted of a mixture of 100 ng of recombinant HIV-1 protease (Sigma-Aldrich catalog SRP2151), 5 μM concentration of a fluorogenic substrate Arg-Glu(EDANS)-[…]DABCYL)-Arg (Sigma-aldrich catalog H6660), and various concentrations of inhibitor compounds in 100 μL of assay buffer (0.15 M sodium chloride, 1.0 mM EDTA, 1.0 mM DTT, 0.1 M sodium acetate, pH 5.0). The fluorescence of the cleavage reaction was continuously read at every 30 s for a total of 40 min.

HIV-1BAL = HIV-1BAL infection of CD8-depleted PBMC, FACS (intracellular p24, CD4, CD62L); type: cell-based
Excerpt: The use of healthy human peripheral blood mononuclear cells (PBMC) is approved by the Department of Transfusion Medicine at the Clinical Center of National Institutes of Health. The use of PBMC from HIV-1 infected individuals for the study was approved under protocol #02-I-0202 by the Institutional Review Board (IRB) of National Institutes of Health with written informed consent from all donors. Peripheral blood mononuclear cells (PBMCs) from anonymous healthy donors were isolated by Ficoll-Paque gradient, and cultured in RPMI 1640 supplemented with 10% FBS, 1%Penicillin/streptomycin, 1% HEPES buffer and 20 U/mL IL-2 (culture media); and stimulated with 0.2 μg/mL anti-CD3 antibody (okt3) for 2 days. CD8^+ T cells were depleted prior to infection using the Stemcell CD8 positive selection kit according to manufacturer’s instructions. CD8-depleted PBMCs were plated at 2×10^6 cells/ml in 48-well plates in 1 mL culture media with various inhibitors for 60 min prior to the addition of ~80 TCID50 HIV-1BAL or HIV-1LAI. Inhibitors were replenished during media change every 3 days. The infections were proceeded with or without inhibitors for 6 days or otherwise specified number of days and then analyzed by FACS staining using fluorescent labeled CD4-BV510, CD62L-APC and CD3-PEC7 antibodies (BD Biosciences). Cells were then washed and permeabilized with CytoFix/CytoPerm (BD Biosciences) solution before intracellular staining for HIV p24 antigen using FITC conjugated anti-p24 antibody clone KC57 (Beckman Coulter, catalog 6604665). All assays were performed with cell viabilities >80%. Replication competent HIV-1 viruses were obtained from the NIH AIDS Reagent Program^4, and expanded by infecting activated CD8-depleted PBMCs, and TCID50 was determined by p24 ELISA.

recombinant ADAM10 [5] = molecular target: T1, recombinant ADAM10; assay: Kinetic cleavage of fluorogenic TNF-α peptide ES003 by recombinant ADAM10; type: biochemical; conditions: 2 μM compound
Excerpt: (§1) A fluorescence based enzymatic assay was used to measure the cleavage of fluorogenic TNF-α and L-selectin (CD62L) peptides by either recombinant ADAMs or PBMC from healthy donors. The fluorogenic substrate, synthesized by Biomatik^3, was a Dabcyl (4-(4-dimethylaminophenylazo)benzoyl)- and Edans (5-[(2-aminoethyl)amino]naphthalene-1-sulfonic acid)- conjugated 12 amino acid peptide: Dabcyl-[…]-Edans that corresponds to the extracellular membrane proximal region of CD62L. […] The cleavage was measured in a kinetic assay every 3 min for 4 h in black 96-well plates using a Synergy_h1 fluorescent plate reader (BioTek) with 340 nm excitation and 490 nm emission wavelengths. […] PBMC were stimulated with anti-CD3 antibody for 2–4 days as described above.
(§2) 96-well plate with data recorded every 3 minutes for 4 hours using a Synergy_h1 fluorescent plate reader. Each enzymatic reaction contained 50 -200 ng
(§3) Figure 2B and 2C bar diagrams are generated using the
(§4) data points at 4 hour time point of the enzymatic cleavages.

recombinant ADAM17 = molecular target: T3, recombinant ADAM17 (Homo sapiens, UniProt P78536); assay: Kinetic cleavage of fluorogenic TNF-α peptide ES003 by recombinant ADAM17; type: biochemical; conditions: 2 μM compound
T3 construct: purchased R&D systems, Inc
T3 sequence (P78536 215-824): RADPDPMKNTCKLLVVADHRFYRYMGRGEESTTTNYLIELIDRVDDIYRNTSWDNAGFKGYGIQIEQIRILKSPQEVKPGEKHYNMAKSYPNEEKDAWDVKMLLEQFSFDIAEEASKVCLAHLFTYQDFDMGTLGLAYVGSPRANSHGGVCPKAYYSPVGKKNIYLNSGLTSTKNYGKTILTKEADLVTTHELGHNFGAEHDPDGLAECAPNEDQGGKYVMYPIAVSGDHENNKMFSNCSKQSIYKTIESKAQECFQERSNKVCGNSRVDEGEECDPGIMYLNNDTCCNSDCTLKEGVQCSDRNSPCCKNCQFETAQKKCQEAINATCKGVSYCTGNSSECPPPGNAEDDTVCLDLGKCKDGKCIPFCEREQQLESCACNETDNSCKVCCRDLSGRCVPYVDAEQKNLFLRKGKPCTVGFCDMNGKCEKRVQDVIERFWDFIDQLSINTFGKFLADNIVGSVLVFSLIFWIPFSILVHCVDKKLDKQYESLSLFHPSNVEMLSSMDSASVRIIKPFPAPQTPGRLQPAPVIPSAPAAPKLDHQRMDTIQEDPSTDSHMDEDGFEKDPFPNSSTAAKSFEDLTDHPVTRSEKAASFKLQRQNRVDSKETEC
Excerpt: as §1, §2, §3, §4

[6] = 10 μM compound, stimulated cells, ELISA

## CNC(=O)[C@@H](NC(=O)[C@H](CC(C)C)[C@H](O)C(=O)NO)C(C)(C)C [Marimastat]
PBMC; 50uM
  PBMC viability at day 6 post infection with HIV-1 BAL: significant loss in cell viability
PBMC
  PBMC viability at 24hr post treatment: No significant decrease in the viability
CD62L shedding [1]; Homo sapiens, PBMC, read-out: Shedding inhibition Non-stim.
  inhibition at 10 µM: > 50%
CD62L shedding [2]; Homo sapiens, 10 μM compound, stimulated cells, ELISA
  inhibition at 10 µM: > 50%

## O=P([O-])([O-])C(Cl)(Cl)P(=O)(O)O.[Na+].[Na+] [DMDP, Dichloromethylenediphosphonic acid disodium salt]
Recombinant ADAM10 [3]
  inhibition of ADAM10 cleavage of CD62L substrate peptide: not
[4]
  effect on HIV protease cleavage of fluorogenic substrate: none of the MMP inhibitors, including BB-94, prinomastat, GM6001 and DMDP, inhibited the activity of HIV protease
HIV-1BAL; HIV-1BAL infected cells
  accumulation of infected CD4−/CD62L− T cells (loss of CD62L): failed to prevent the loss of CD62L
HIV-1BAL; day 7 post infection, compounds at 100 μM, GI254023X at 250 μM
  effect on HIV-1BAL infection (intracellular p24): failed to inhibit HIV-1BAL infections
Recombinant ADAM10 [5]
  inhibition of ADAM10 cleavage of ES003: inhibited neither ADAM10 nor 17 enzymatic activities
CD62L shedding [2]; [6]
  Shedding inhibition Stimulated: − (0% inhibition)
Recombinant ADAM17
  inhibition of ADAM17 cleavage of ES003: inhibited neither ADAM10 nor 17 enzymatic activities

## Cc1c(O)cccc1C(=O)N[C@@H](CSc1ccccc1)[C@H](O)CN1C[C@H]2CCCC[C@H]2C[C@H]1C(=O)NC(C)(C)C [nelfinavir]
PBMC; 10uM
  PBMC viability at day 3 post treatment: significant reduced cell viability
[4]
  effect on HIV protease cleavage of fluorogenic substrate: suppressed the substrate cleavage by HIV protease
HIV-1BAL; day 6, 0.5μM compounds
  p24 staining in HIV-1BAL infection of PBMC: no significant staining
CD62L shedding [2]; titration of HAART compounds, concentration range tested
  effect on CD62L shedding from stimulated PBMC: did not inhibit CD62L shedding

## CC(C)(C)NC(=O)[C@@H]1C[C@@H]2CCCC[C@@H]2CN1C[C@@H](O)[C@H](Cc1ccccc1)NC(=O)[C@H](CC(N)=O)NC(=O)c1ccc2ccccc2n1 [saquinavir]
[4]
  effect on HIV protease cleavage of fluorogenic substrate: suppressed the substrate cleavage by HIV protease

## GW280264X
PBMC
  PBMC viability at 24hr post treatment: No significant decrease in the viability
CD62L shedding [1]
  Shedding inhibition Non-stim.: +/− (<20)
CD62L shedding [2]; [6]
  Shedding inhibition Stimulated: +/− (<20)
